The text below walks through data of PubChem BioAssay (NCI).

Some test systems named below: CAKI-1 renal; HCC-2998 colon; HCT-116 colon; M14 melanoma; MALME-3M melanoma; MCF7 breast; MDA-MB-231 breast; MDA-N; NCI-H23 lung; NCI-H460 lung; NCI-H522 lung; OVCAR-3 ovarian; OVCAR-5 ovarian; PC-3 prostate; SF-539 CNS; SNB-19 CNS; SR leukemia; T-47D breast; UACC-62 melanoma; MOLT-4 leukemia.
What all share (assay): NCI tumour cell line growth inhibition, 48 h

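Method: 48-hour compound exposure of cells in 96-well plates, five concentrations, linear interpolation of endpoints. TGI denotes the concentration required for complete inhibition of growth.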

Regarding `O=C(CC(C(=O)c1ccco1)c1cccs1)c1cccs1` (configuration not stated), the TGI with CAKI-1 renal, in the assay on HCC-2998 colon, with HCT-116 colon, in the assay with M14 melanoma, in the assay with MALME-3M melanoma and with MCF7 breast was > 100 µM each time. In addition, the TGI in the assay with MDA-MB-231 breast, with MDA-N, with NCI-H23 lung, in the assay with NCI-H460 lung, in the assay with NCI-H522 lung and in the assay with OVCAR-3 ovarian was > 100 µM each time. In addition, the TGI with OVCAR-5 ovarian, in the assay with PC-3 prostate, with SF-539 CNS, in the assay with SNB-19 CNS, in the assay on SR leukemia and in the assay on T-47D breast was > 100 µM in each case. The TGI with UACC-62 melanoma was > 100 µM.
As for `CCn1c(-c2ccc(F)cc2)nc2c1C(=O)c1ccccc1C2=O`, the TGI in the assay on HCC-2998 colon, with HCT-116 colon, in the assay with M14 melanoma, in the assay on MALME-3M melanoma, in the assay with MCF7 breast and with MDA-MB-231 breast was > 100 µM in each case. Also, the TGI in the assay on MDA-N, in the assay on MOLT-4 leukemia, in the assay on NCI-H23 lung, in the assay on NCI-H460 lung, with NCI-H522 lung and with OVCAR-3 ovarian was > 100 µM in each case. Besides, the TGI with OVCAR-5 ovarian, with PC-3 prostate, in the assay on SF-539 CNS, with SNB-19 CNS, in the assay with SR leukemia and in the assay with T-47D breast was > 100 µM in each case. In addition, the TGI with UACC-62 melanoma is > 100 µM.
Regarding `CC(=O)OC[C@@H]1[C@H]2CC[C@]3(C)[C@@H](OC(C)=O)CC[C@H]3[C@@H]2CC[C@H]1C1(C)SCCS1`, the TGI in the assay on CAKI-1 renal, in the assay on HCC-2998 colon, in the assay with HCT-116 colon, with M14 melanoma, with MALME-3M melanoma and with MCF7 breast was > 25 µM each time. The TGI with MDA-MB-231 breast, in the assay with MDA-N, in the assay with MOLT-4 leukemia, with NCI-H23 lung, in the assay on NCI-H460 lung and in the assay with NCI-H522 lung was > 25 µM throughout. In addition, the TGI in the assay on OVCAR-3 ovarian, in the assay with OVCAR-5 ovarian, with PC-3 prostate, with SF-539 CNS, with SNB-19 CNS and with SR leukemia was > 25 µM throughout. In addition, the TGI with T-47D breast was > 25 µM.
Consider `O=C(NNc1ccnc2cc(Cl)ccc12)/C(=C\c1ccccc1Cl)NC(=O)c1ccccc1`, for which the TGI with CAKI-1 renal was > 100 µM; with HCC-2998 colon, > 100 µM; in the assay with HCT-116 colon, > 100 µM; with M14 melanoma, > 100 µM; in the assay with MALME-3M melanoma, > 100 µM; with MCF7 breast it was 46.1 µM. Also, the TGI in the assay on MDA-MB-231 breast is > 100 µM; in the assay with MDA-N, > 100 µM; in the assay with NCI-H23 lung, > 100 µM; with NCI-H460 lung, > 100 µM; in the assay on NCI-H522 lung it was 39.9 µM; in the assay on OVCAR-3 ovarian, 38.2 µM. Besides, the TGI is > 100 µM in the assay on OVCAR-5 ovarian; > 100 µM in the assay with PC-3 prostate; 72.7 µM with SF-539 CNS; > 100 µM with SNB-19 CNS; > 100 µM in the assay with SR leukemia; > 100 µM with T-47D breast. This molecule also had a TGI in the assay with UACC-62 melanoma of 70.9 µM.
With `N#Cc1nc(COCc2ccccc2)oc1N`, the TGI in the assay with CAKI-1 renal, with HCC-2998 colon, in the assay on HCT-116 colon, in the assay with M14 melanoma, in the assay on MALME-3M melanoma and in the assay on MCF7 breast was > 100 µM in each case. Moreover, the TGI in the assay with MDA-MB-231 breast, in the assay with MDA-N, with MOLT-4 leukemia, in the assay with NCI-H23 lung, in the assay on NCI-H522 lung and with OVCAR-3 ovarian was > 100 µM throughout. The TGI in the assay with OVCAR-5 ovarian, with PC-3 prostate, in the assay with SF-539 CNS, in the assay on SNB-19 CNS, in the assay with SR leukemia and in the assay with T-47D breast was > 100 µM in each case. For the same molecule, the TGI in the assay on UACC-62 melanoma is > 100 µM.
Consider `C=C1CCCCCCCCCCC12SCCC2CCCCSC` (configuration not stated), for which the TGI in the assay with HCC-2998 colon is 39.2 µM; in the assay on HCT-116 colon, 33.9 µM; in the assay on M14 melanoma, 50.1 µM; in the assay with MALME-3M melanoma, 36.2 µM; with MCF7 breast, 39.3 µM; in the assay with MDA-MB-231 breast, 39 µM. In addition, the TGI was > 100 µM in the assay on MDA-N; 40.1 µM in the assay with MOLT-4 leukemia; 56.9 µM in the assay on NCI-H23 lung; > 100 µM with NCI-H460 lung; 36.8 µM with NCI-H522 lung; 34.1 µM in the assay with OVCAR-3 ovarian. For the same molecule, the TGI stood at 40 µM with OVCAR-5 ovarian; 56.1 µM with PC-3 prostate; 38.3 µM in the assay with SF-539 CNS; 52.2 µM in the assay with SNB-19 CNS; 53.4 µM in the assay on SR leukemia; 43.8 µM in the assay on T-47D breast. Moreover, in the assay on UACC-62 melanoma, the TGI stood at 76 µM.
As to `CN1C(=O)N/C(=C\c2ccc(S(=O)(=O)N/N=C\C(O)C(O)C(O)CO)cc2)C1=O` (configuration not stated), the TGI in the assay with CAKI-1 renal, in the assay with HCC-2998 colon, in the assay with HCT-116 colon, in the assay on M14 melanoma, in the assay on MALME-3M melanoma and with MCF7 breast was > 100 µM in each case. Also, the TGI in the assay on MDA-MB-231 breast, in the assay with MDA-N, in the assay with MOLT-4 leukemia, with NCI-H23 lung, in the assay with NCI-H460 lung and with OVCAR-3 ovarian was > 100 µM in each case. The TGI in the assay on OVCAR-5 ovarian, in the assay with PC-3 prostate, in the assay with SNB-19 CNS, in the assay on SR leukemia, in the assay with T-47D breast and with UACC-62 melanoma was > 100 µM each time.
